Laboratory results: US8883963B2 (Cadila Healthcare Limited, priority 2007, dated 2014)

Experiments:
[1] = test system: RIN5F (Rat Insulinoma) cells; experiment: In vitro glucose-dependent insulin secretion (RIN5F cell assay screening protocol); format: cell-based; settings: 16.7 mM glucose load
Human GLP-1 receptor = molecular target: T1, Human GLP-1 receptor (Homo sapiens, UniProt P43220); experiment: In vitro Human GLP-1 R agonist activity (cyclic AMP determination) in CHO/human GLP1R cells; format: cell-based
T1 construct: The full-length cDNA was cloned in pcDNA3.1(+); expressed in transfected cells
T1 sequence (P43220 24-463): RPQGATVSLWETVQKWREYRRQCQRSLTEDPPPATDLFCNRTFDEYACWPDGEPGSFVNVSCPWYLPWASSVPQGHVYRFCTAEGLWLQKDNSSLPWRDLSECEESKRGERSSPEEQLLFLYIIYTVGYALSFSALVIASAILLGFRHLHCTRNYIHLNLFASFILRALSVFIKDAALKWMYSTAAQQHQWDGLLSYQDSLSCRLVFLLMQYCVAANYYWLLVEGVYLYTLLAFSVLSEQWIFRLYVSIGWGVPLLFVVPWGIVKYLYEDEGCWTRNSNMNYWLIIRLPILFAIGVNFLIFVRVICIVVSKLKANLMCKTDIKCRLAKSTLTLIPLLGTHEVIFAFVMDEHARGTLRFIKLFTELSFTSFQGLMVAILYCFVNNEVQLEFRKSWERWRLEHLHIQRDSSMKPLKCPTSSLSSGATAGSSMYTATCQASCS

human glucagon receptor = molecular target: T2, human glucagon receptor (Homo sapiens, UniProt P47871); experiment: In vitro human glucagon antagonist activity (inhibition of cAMP production) in CHO/human glucagon R cells; format: cell-based; settings: with saturated concentration of glucagon peptide
T2 construct: The full-length cDNA was cloned in pcDNA3.1 (Invitrogen); expressed in transfected cells
T2 sequence (P47871 26-477): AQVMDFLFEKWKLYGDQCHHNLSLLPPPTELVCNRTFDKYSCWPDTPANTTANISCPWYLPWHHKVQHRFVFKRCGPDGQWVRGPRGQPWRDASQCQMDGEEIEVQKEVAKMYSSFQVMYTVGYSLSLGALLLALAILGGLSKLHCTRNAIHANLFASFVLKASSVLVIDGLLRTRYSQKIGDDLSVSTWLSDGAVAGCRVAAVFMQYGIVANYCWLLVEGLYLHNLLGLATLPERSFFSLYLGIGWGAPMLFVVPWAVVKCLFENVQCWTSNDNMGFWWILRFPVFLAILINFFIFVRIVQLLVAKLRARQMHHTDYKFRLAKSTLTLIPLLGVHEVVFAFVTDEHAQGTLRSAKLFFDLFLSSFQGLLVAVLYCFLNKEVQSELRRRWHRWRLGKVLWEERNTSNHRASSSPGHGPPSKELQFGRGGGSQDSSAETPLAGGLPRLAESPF

DPP IV = DPP IV (Homo sapiens, UniProt P27487); experiment: Stability against DPP IV enzyme; format: in vitro ADME; settings: 37° C.; for % degradation of peptidomimetics in 24 h when incubated with DPP-IV enzyme: 2 μM peptidomimetic; for half-life at 2 μM: DPP IV enzyme, pH 7.8, 2 μM peptidomimetic, read-out: half-life (t1/2) when incubated with DPP-IV enzyme
Chain of DPP IV (P27487 whole entry, species assumed): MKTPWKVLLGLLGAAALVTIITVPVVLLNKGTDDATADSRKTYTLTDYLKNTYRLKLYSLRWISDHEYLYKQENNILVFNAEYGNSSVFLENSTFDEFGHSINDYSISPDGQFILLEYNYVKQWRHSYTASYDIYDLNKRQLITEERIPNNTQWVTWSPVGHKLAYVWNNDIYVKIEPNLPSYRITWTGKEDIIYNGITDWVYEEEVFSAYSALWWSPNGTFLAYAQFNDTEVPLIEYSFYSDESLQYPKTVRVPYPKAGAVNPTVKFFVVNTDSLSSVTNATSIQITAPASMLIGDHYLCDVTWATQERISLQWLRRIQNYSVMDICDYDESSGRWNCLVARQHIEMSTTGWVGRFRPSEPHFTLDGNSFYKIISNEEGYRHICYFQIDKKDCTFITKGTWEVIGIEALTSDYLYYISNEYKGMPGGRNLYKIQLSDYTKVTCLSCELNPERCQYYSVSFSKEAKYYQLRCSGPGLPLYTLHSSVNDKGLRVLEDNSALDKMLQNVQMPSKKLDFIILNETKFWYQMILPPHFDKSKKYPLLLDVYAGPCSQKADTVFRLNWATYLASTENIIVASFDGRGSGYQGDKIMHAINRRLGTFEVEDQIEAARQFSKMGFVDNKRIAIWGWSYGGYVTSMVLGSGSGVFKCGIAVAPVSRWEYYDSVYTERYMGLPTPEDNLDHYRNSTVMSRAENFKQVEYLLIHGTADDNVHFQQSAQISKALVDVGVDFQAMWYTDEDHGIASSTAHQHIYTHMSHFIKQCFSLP
Description: (§1) Reactions were terminated by the addition of TFA/H2O (15 mL, 10% (v/v)). […] The column was equilibrated with TFA/H20, at a flow rate of 1 mL/min.

[2] = Stability in human plasma; format: in vitro ADME; settings: 2 μM peptidomimetic, pooled human plasma, 37° C.; for half-life at 2 μM: pH 7.8, read-out: half-life (t1/2) when incubated with human plasma
Description: as §1

[3] = Stability in simulated gastric fluid; format: in vitro ADME; settings: 2 μM peptidomimetic, simulated gastric fluid pH 1.5, 37° C.; for half-life at 2 μM: read-out: half-life (t1/2) when incubated with simulated gastric fluid
Description: as §1

[4] = Stability in simulated intestinal fluid; format: in vitro ADME; settings: 2 μM peptidomimetic, simulated intestinal fluid pH 7.5, 37° C.; for half-life at 2 μM: read-out: half-life (t1/2) when incubated with simulated intestinal fluid
Description: as §1

[5] = Stability in liver microsomes; format: in vitro ADME; settings: 2 μM peptidomimetic, human liver microsomes, 37° C.; for half-life at 2 μM: pH 7.8, read-out: half-life (t1/2) when incubated with liver microsomes
Description: as §1

CCc1cc(OC)ccc1-c1ccc(CC(CNC(CCCc2ccccc2)C(N)=O)NC[C@H](CC(=O)O)NC(=O)[C@H](CO)NC(=O)[C@@H](NC(=O)C(C)(Cc2ccccc2F)NC(=O)[C@@H](NC(=O)CNC(=O)C(CCC#N)NC(=O)C(C)(C)NC(=O)[C@@H](N)Cc2c[nH]cn2)[C@H](C)O)[C@H](C)O)cc1 (single isomer, unassigned) [compound 202]
Insulin secretion ([1]; 0.1 nM test compd.): 16.8 ± 0.20 pg/µg/h
Insulin secretion ([1]; 1 nM test compd.): 22.7 ± 0.29 pg/µg/h
Insulin secretion ([1]; 10 nM test compd.): 36.6 ± 0.31 pg/µg/h
Human GLP-1 R activity (cAMP release), % activity with respect to control (Human GLP-1 receptor; 1 nM test compound): 99 ± 0.12%
Human GLP-1 R activity (cAMP release), % activity with respect to control (Human GLP-1 receptor; 10 nM test compound): 99 ± 0.15%
Human GLP-1 R activity (cAMP release), % activity with respect to control (Human GLP-1 receptor; 100 nM test compound): 99 ± 0.18%
Human GLP-1 R activity (cAMP release), % activity with respect to control (Human GLP-1 receptor; 1 μM test compound): 99 ± 0.03%
Human GLP-1 R activity (cAMP release), % activity with respect to control (Human GLP-1 receptor; 10 μM test compound): 99 ± 0.09%
Human Glucagon receptor antagonistic activity shown as inhibition of cAMP production of Glucagon peptide (human glucagon receptor; 1 nM test compound): 9 ± 0.14 pmol/ml/μg prt
Human Glucagon receptor antagonistic activity shown as inhibition of cAMP production of Glucagon peptide (human glucagon receptor; 10 nM test compound): 6 ± 0.14 pmol/ml/μg prt
Human Glucagon receptor antagonistic activity shown as inhibition of cAMP production of Glucagon peptide (human glucagon receptor; 100 nM test compound): 5 ± 0.13 pmol/ml/μg prt
Human Glucagon receptor antagonistic activity shown as inhibition of cAMP production of Glucagon peptide (human glucagon receptor; 1 μM test compound): 3 ± 0.24 pmol/ml/μg prt
Human Glucagon receptor antagonistic activity shown as inhibition of cAMP production of Glucagon peptide (human glucagon receptor; 10 μM test compound): 0 pmol/ml/μg prt
% degradation of peptidomimetics in 24 h when incubated with DPP-IV enzyme (DPP IV): 00%
half-life at 2 μM (DPP IV): > 24 h
% degradation of peptidomimetics in 24 h when incubated with human plasma [2]: 00%
half-life at 2 μM [2]: > 24 h
% degradation of peptidomimetics in 24 h when incubated with simulated gastric fluid [3]: 00%
half-life at 2 μM [3]: > 24 h
% degradation of peptidomimetics in 24 h when incubated with simulated intestinal fluid [4]: 00%
half-life at 2 μM [4]: > 24 h
half-life (t1/2) when incubated with liver microsomes [5]: (5) h
% degradation of peptidomimetics in 24 h when incubated with liver microsomes [5]: 33%

CCc1cc(OC)ccc1-c1ccc(CC(NC(=O)[C@H](CC(=O)O)NC(=O)[C@H](CO)NC(=O)[C@@H](NC(=O)[C@H](Cc2ccccc2)NC(=O)[C@@H](NC(=O)CNC(=O)C(CCC#N)NC(=O)C(C)(C)NC(=O)[C@@H](N)Cc2c[nH]cn2)[C@@H](C)O)[C@@H](C)O)C(=O)NC(CCCc2ccc(OC)cc2Cl)C(N)=O)cc1 (single isomer, unassigned) [compound 84]
Insulin secretion ([1]; 0.1 nM test compd.): 12.1 ± 0.42 pg/µg/h
Insulin secretion ([1]; 1 nM test compd.): 14.6 ± 0.41 pg/µg/h
Insulin secretion ([1]; 10 nM test compd.): 27.8 ± 0.46 pg/µg/h
Human GLP-1 R activity (cAMP release), % activity with respect to control (Human GLP-1 receptor; 1 nM test compound): 38 ± 0.11%
Human GLP-1 R activity (cAMP release), % activity with respect to control (Human GLP-1 receptor; 10 nM test compound): 77 ± 0.16%
Human GLP-1 R activity (cAMP release), % activity with respect to control (Human GLP-1 receptor; 100 nM test compound): 85 ± 0.11%
Human GLP-1 R activity (cAMP release), % activity with respect to control (Human GLP-1 receptor; 1 μM test compound): 94 ± 0.08%
Human GLP-1 R activity (cAMP release), % activity with respect to control (Human GLP-1 receptor; 10 μM test compound): 97 ± 0.05%
Human Glucagon receptor antagonistic activity shown as inhibition of cAMP production of Glucagon peptide (human glucagon receptor; 1 nM test compound): 4 ± 0.01 pmol/ml/μg prt
Human Glucagon receptor antagonistic activity shown as inhibition of cAMP production of Glucagon peptide (human glucagon receptor; 10 nM test compound): 2 ± 0.17 pmol/ml/μg prt
Human Glucagon receptor antagonistic activity shown as inhibition of cAMP production of Glucagon peptide (human glucagon receptor; 100 nM test compound): 0 pmol/ml/μg prt
Human Glucagon receptor antagonistic activity shown as inhibition of cAMP production of Glucagon peptide (human glucagon receptor; 1 μM test compound): 0 pmol/ml/μg prt
Human Glucagon receptor antagonistic activity shown as inhibition of cAMP production of Glucagon peptide (human glucagon receptor; 10 μM test compound): 0 pmol/ml/μg prt
% degradation of peptidomimetics in 24 h when incubated with DPP-IV enzyme (DPP IV): 00%
half-life at 2 μM (DPP IV): > 24 h
% degradation of peptidomimetics in 24 h when incubated with human plasma [2]: 00%
half-life at 2 μM [2]: > 24 h
% degradation of peptidomimetics in 24 h when incubated with simulated gastric fluid [3]: 45%
half-life at 2 μM [3]: 4 h
% degradation of peptidomimetics in 24 h when incubated with simulated intestinal fluid [4]: 00%
half-life at 2 μM [4]: > 24 h
% degradation of peptidomimetics in 24 h when incubated with liver microsomes [5]: 85%
half-life at 2 μM [5]: 2 h

CCc1cc(OC)ccc1-c1ccc(CC(NC(=O)[C@H](CC(=O)O)NC(=O)[C@H](CO)NC(=O)[C@@H](NC(=O)[C@H](Cc2ccccc2)NC(=O)[C@@H](NC(=O)CNC(=O)[C@H](CCC(N)=O)NC(=O)[C@H](CO)NC(=O)[C@@H](N)Cc2c[nH]cn2)[C@@H](C)O)[C@@H](C)O)C(=O)NC(CCCc2ccccc2F)C(N)=O)cc1 (single isomer, unassigned) [compound 45]
Insulin secretion ([1]; 0.1 nM test compd.): 11.8 ± 0.50 pg/µg/h
Insulin secretion ([1]; 1 nM test compd.): 14.9 ± 0.11 pg/µg/h
Insulin secretion ([1]; 10 nM test compd.): 27.9 ± 0.31 pg/µg/h
Human GLP-1 R activity (cAMP release), % activity with respect to control (Human GLP-1 receptor; 1 nM test compound): 51 ± 0.03%
Human GLP-1 R activity (cAMP release), % activity with respect to control (Human GLP-1 receptor; 10 nM test compound): 86 ± 0.40%
Human GLP-1 R activity (cAMP release), % activity with respect to control (Human GLP-1 receptor; 100 nM test compound): 91 ± 0.21%
Human GLP-1 R activity (cAMP release), % activity with respect to control (Human GLP-1 receptor; 1 μM test compound): 99 ± 0.32%
Human GLP-1 R activity (cAMP release), % activity with respect to control (Human GLP-1 receptor; 10 μM test compound): 99 ± 0.21%
Human Glucagon receptor antagonistic activity shown as inhibition of cAMP production of Glucagon peptide (human glucagon receptor; 1 nM test compound): 15 ± 0.11 pmol/ml/μg prt
Human Glucagon receptor antagonistic activity shown as inhibition of cAMP production of Glucagon peptide (human glucagon receptor; 10 nM test compound): 12 ± 0.13 pmol/ml/μg prt
Human Glucagon receptor antagonistic activity shown as inhibition of cAMP production of Glucagon peptide (human glucagon receptor; 100 nM test compound): 8 ± 0.09 pmol/ml/μg prt
Human Glucagon receptor antagonistic activity shown as inhibition of cAMP production of Glucagon peptide (human glucagon receptor; 1 μM test compound): 4 ± 0.01 pmol/ml/μg prt
Human Glucagon receptor antagonistic activity shown as inhibition of cAMP production of Glucagon peptide (human glucagon receptor; 10 μM test compound): 2 ± 0.08 pmol/ml/μg prt
% degradation of peptidomimetics in 24 h when incubated with DPP-IV enzyme (DPP IV): 77%
half-life (t1/2) when incubated with human plasma [2]: (9) h
% degradation of peptidomimetics in 24 h when incubated with human plasma [2]: 80%
% degradation of peptidomimetics in 24 h when incubated with simulated gastric fluid [3]: 100%
half-life at 2 μM [3]: 0.5 h
% degradation of peptidomimetics in 24 h when incubated with simulated intestinal fluid [4]: 100%
half-life at 2 μM [4]: 0.5 h
% degradation of peptidomimetics in 24 h when incubated with liver microsomes [5]: 100%
half-life at 2 μM [5]: 0.5 h

CCc1cc(OC)ccc1-c1ccc(CC(NC(=O)[C@H](CC(=O)O)NC(=O)[C@H](CO)NC(=O)[C@@H](NC(=O)C(C)(Cc2ccccc2F)NC(=O)[C@@H](NC(=O)CNC(=O)C(CCC#N)NC(=O)C(C)(C)NC(=O)[C@@H](N)Cc2c[nH]cn2)[C@H](C)O)[C@H](C)O)C(=O)N(C)C(CCCc2ccccc2)C(N)=O)cc1 (single isomer, unassigned) [compound 130]
Insulin secretion ([1]; 0.1 nM test compd.): 17.1 ± 0.11 pg/µg/h
Insulin secretion ([1]; 1 nM test compd.): 23.1 ± 0.16 pg/µg/h
Insulin secretion ([1]; 10 nM test compd.): 37.0 ± 0.29 pg/µg/h
Human GLP-1 R activity (cAMP release), % activity with respect to control (Human GLP-1 receptor; 1 nM test compound): 39 ± 0.10%
Human GLP-1 R activity (cAMP release), % activity with respect to control (Human GLP-1 receptor; 10 nM test compound): 81 ± 0.08%
Human GLP-1 R activity (cAMP release), % activity with respect to control (Human GLP-1 receptor; 100 nM test compound): 89 ± 0.09%
Human GLP-1 R activity (cAMP release), % activity with respect to control (Human GLP-1 receptor; 1 μM test compound): 96 ± 0.11%
Human GLP-1 R activity (cAMP release), % activity with respect to control (Human GLP-1 receptor; 10 μM test compound): 99 ± 0.16%
Human Glucagon receptor antagonistic activity shown as inhibition of cAMP production of Glucagon peptide (human glucagon receptor; 1 nM test compound): 5 ± 0.04 pmol/ml/μg prt
Human Glucagon receptor antagonistic activity shown as inhibition of cAMP production of Glucagon peptide (human glucagon receptor; 10 nM test compound): 3 ± 0.02 pmol/ml/μg prt
Human Glucagon receptor antagonistic activity shown as inhibition of cAMP production of Glucagon peptide (human glucagon receptor; 100 nM test compound): 1 ± 0.11 pmol/ml/μg prt
Human Glucagon receptor antagonistic activity shown as inhibition of cAMP production of Glucagon peptide (human glucagon receptor; 1 μM test compound): 0 pmol/ml/μg prt
Human Glucagon receptor antagonistic activity shown as inhibition of cAMP production of Glucagon peptide (human glucagon receptor; 10 μM test compound): 0 pmol/ml/μg prt
% degradation of peptidomimetics in 24 h when incubated with DPP-IV enzyme (DPP IV): 76%
half-life at 2 μM (DPP IV): 9 h
% degradation of peptidomimetics in 24 h when incubated with human plasma [2]: 78%
half-life at 2 μM [2]: 8 h
half-life (t1/2) when incubated with simulated gastric fluid [3]: (8) h
% degradation of peptidomimetics in 24 h when incubated with simulated gastric fluid [3]: 12%
half-life (t1/2) when incubated with simulated intestinal fluid [4]: (6) h
% degradation of peptidomimetics in 24 h when incubated with simulated intestinal fluid [4]: 55%
% degradation of peptidomimetics in 24 h when incubated with liver microsomes [5]: 79%
half-life at 2 μM [5]: 1 h
